Measurements from patent US8530489B2 (Vertex Pharmaceuticals Incorporated, priority 2006, dated 2013).

Each molecule was assayed against PLK1 (Homo sapiens, UniProt P53350) (assay: PLK1 Inhibition Assay I (radioactive-phosphate incorporation)). Conditions: Ki(app); PLK1 Inhibition Assay I or II (table does not say which).
Format: biochemical
Experimental: The compounds of the present invention are evaluated as inhibitors of human PLK kinase using the following assays.
Compounds were screened for their ability to inhibit PLK1 using a radioactive-phosphate incorporation assay. Assays were carried out in a mixture of 25 mM HEPES (pH 7.5), 10 mM MgCl2, and 1 mM DTT. Final substrate concentrations were 350 μM [γ-33P]ATP (136 mCi 33P ATP/mmol ATP, Amersham Pharmacia Biotech/Sigma Chemicals) and 450 μM peptide (KKKISDELMDATFADQEAK) [SEQ. ID:1]. Assays were carried out at 25° C. in the presence of 2 nM PLK1. An assay stock buffer solution was prepared containing all of the reagents listed above, with the exception of ATP and the test compound of interest. 30 μL of the stock solution was placed in a 96 well plate followed by addition of 2 μL of DMSO stock containing serial dilutions of the test compound (typically starting from a final concentration of 10 μM with 2-fold serial dilutions) in duplicate (final DMSO concentration 5%). The plate was pre-incubated for 10 minutes at 25° C. and the reaction initiated by addition of 8 μL [γ-33P]ATP (final concentration 350 μM).
The reaction was stopped after 240 minutes by the addition of 100 μL 0.14M phosphoric acid. A multiscreen phosphocellulose filter 96-well plate (Millipore, Cat No. MAPHN0B50) was pretreated with 100 μL 0.1 M phosphoric acid prior to the addition of 125 μL of the stopped assay mixture. The plate was washed with 4×200 μL 0.1 M phosphoric acid. After drying, 100 μL Optiphase ‘SuperMix’ liquid scintillation cocktail (Perkin Elmer) was added to the well prior to scintillation counting (1450 Microbeta Liquid Scintillation Counter, Wallac).
After removing mean background values for all of the data points, Ki(app) data were calculated from non-linear regression analysis of the initial rate data using the Prism software package (GraphPad Prism version 3.0cx for Macintosh, GraphPad Software, San Diego Calif., USA).

PLK1, sequence (P53350 whole entry): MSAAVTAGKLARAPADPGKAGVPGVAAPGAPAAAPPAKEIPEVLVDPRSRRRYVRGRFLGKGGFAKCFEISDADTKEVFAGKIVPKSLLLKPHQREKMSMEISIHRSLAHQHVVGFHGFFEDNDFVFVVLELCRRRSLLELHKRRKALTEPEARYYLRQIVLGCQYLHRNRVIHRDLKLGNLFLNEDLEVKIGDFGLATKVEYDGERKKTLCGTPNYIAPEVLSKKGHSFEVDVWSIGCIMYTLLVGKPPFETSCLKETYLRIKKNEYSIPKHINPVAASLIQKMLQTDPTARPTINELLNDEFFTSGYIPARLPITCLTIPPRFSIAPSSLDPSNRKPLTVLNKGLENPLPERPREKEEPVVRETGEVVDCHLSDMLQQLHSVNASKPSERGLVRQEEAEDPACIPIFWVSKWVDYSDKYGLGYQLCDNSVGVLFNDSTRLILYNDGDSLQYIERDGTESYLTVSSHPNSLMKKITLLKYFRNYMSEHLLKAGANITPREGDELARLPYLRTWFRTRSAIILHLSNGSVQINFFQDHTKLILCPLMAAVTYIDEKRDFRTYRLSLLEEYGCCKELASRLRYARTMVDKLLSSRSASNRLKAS

Row | Structure (SMILES) | Ki [nM]
1 | CNc1ncc(C#N)c(-c2c[nH]c3ncc(C(F)(F)F)cc23)n1 [Compound I-2, 2-(methylamino)-4-(5-(trifluoromethyl)-1H-pyrrolo[2,3-b]pyridin-3-yl)pyrimidine-5-carbonitrile] | > 40
2 | CC(C)(C)Nc1ncc(C#N)c(-c2c[nH]c3ncc(C(F)(F)F)cc23)n1 [Compound I-4, 2-(tert-butylamino)-4-(5-(trifluoromethyl)-1H-pyrrolo[2,3-b]pyridin-3-yl)pyrimidine-5-carbonitrile] | > 40
3 | C[C@H](Nc1ncc(C#N)c(-c2c[nH]c3ncc(C(F)(F)F)cc23)n1)c1ccccc1 [Compound I-5, 2-((S)-1-phenylethylamino)-4-(5-(trifluoromethyl)-1H-pyrrolo[2,3-b]pyridin-3-yl)pyrimidine-5-carbonitrile] | > 40
4 | N#Cc1cnc(NCCc2ccccc2)nc1-c1c[nH]c2ncc(C(F)(F)F)cc12 [Compound I-7, 2-(phenethylamino)-4-(5-(trifluoromethyl)-1H-pyrrolo[2,3-b]pyridin-3-yl)pyrimidine-5-carbonitrile] | > 40
5 | CN(Cc1ccccc1)c1ncc(C#N)c(-c2c[nH]c3ncc(C(F)(F)F)cc23)n1 [Compound I-8, 2-(benzyl(methyl)amino)-4-(5-(trifluoromethyl)-1H-pyrrolo[2,3-b]pyridin-3-yl)pyrimidine-5-carbonitrile] | > 40
6 | CCN(Cc1ccccc1)c1ncc(C#N)c(-c2c[nH]c3ncc(C(F)(F)F)cc23)n1 [Compound I-11, 2-(benzyl(ethyl)amino)-4-(5-(trifluoromethyl)-1H-pyrrolo[2,3-b]pyridin-3-yl)pyrimidine-5-carbonitrile] | > 40
7 | COc1ccc(CNc2ncc(C#N)c(-c3c[nH]c4ncc(C(F)(F)F)cc34)n2)cc1 [Compound I-12, 2-(4-methoxybenzylamino)-4-(5-(trifluoromethyl)-1H-pyrrolo[2,3-b]pyridin-3-yl)pyrimidine-5-carbonitrile] | > 40

Second part, the molecule after the results:

Row | Ki [nM] | Structure (SMILES)
8 | > 40 | CC(C)(Nc1ncc(C#N)c(-c2c[nH]c3ncc(Cl)cc23)n1)C(=O)NCCC(F)(F)F
9 | < 3 | C[C@@H](Nc1ncc(C#N)c(-c2c[nH]c3ncc(C(F)(F)F)cc23)n1)[C@H]1CC[C@H](NS(C)(=O)=O)CC1 (single isomer, unassigned) [Compound I-202]
10 | < 3 | C[C@@H](Nc1ncc(C#N)c(-c2c[nH]c3ncc(C(F)(F)F)cc23)n1)[C@H]1CC[C@@H](NS(C)(=O)=O)CC1 (single isomer, unassigned) [Compound I-203]
11 | > 40 | N#Cc1cnc(NCc2ccccc2)nc1-c1c[nH]c2ncc(C(F)(F)F)cc12 [Compound I-1, 2-(benzylamino)-4-(5-(trifluoromethyl)-1H-pyrrolo[2,3-b]pyridin-3-yl)pyrimidine-5-carbonitrile]
12 | 3 to 40 | CC(C)Nc1ncc(C#N)c(-c2c[nH]c3ncc(C(F)(F)F)cc23)n1 [Compound I-3, 2-(isopropylamino)-4-(5-(trifluoromethyl)-1H-pyrrolo[2,3-b]pyridin-3-yl)pyrimidine-5-carbonitrile]
13 | < 3 | C[C@@H](Nc1ncc(C#N)c(-c2c[nH]c3ncc(C(F)(F)F)cc23)n1)c1ccccc1 [Compound I-6, 2-((R)-1-phenylethylamino)-4-(5-(trifluoromethyl)-1H-pyrrolo[2,3-b]pyridin-3-yl)pyrimidine-5-carbonitrile]
14 | 3 to 40 | CC(C)(Nc1ncc(C#N)c(-c2c[nH]c3ncc(C(F)(F)F)cc23)n1)c1ccccc1 [Compound I-9, 2-(2-phenylpropan-2-ylamino)-4-(5-(trifluoromethyl)-1H-pyrrolo[2,3-b]pyridin-3-yl)pyrimidine-5-carbonitrile]
15 | 3 to 40 | N#Cc1cnc(NC2CCCCC2)nc1-c1c[nH]c2ncc(C(F)(F)F)cc12 [Compound I-10, 2-(cyclohexylamino)-4-(5-(trifluoromethyl)-1H-pyrrolo[2,3-b]pyridin-3-yl)pyrimidine-5-carbonitrile]
